Source: US20190136188A1, “4HPR AND ITS USE IN THE CULTURING OF HEMATOPOIETIC STEM CELLS” (UNIVERSITY HEALTH NETWORK, priority 2016, published 2019)

What was measured:
lin- CB cells = experiment: 8 day ex vivo expansion culture of lin- CB, flow cytometry; type: cell-based, human
Description: (§1) (A) Experimental scheme (B) Representative FACS analysis data of in vitro culture for 16 HSC dose time course (n=3). The number of (C) viable cells, (D) CD15+ myeloid cells, (E) GlyA+ erythroid cells, and (F) CD34+ primitive cells measured for the 16 LTRC dose with HTS flow cytometry analysis at day 8 post-treatment for vehicle control or 4HPR prior to xenotransplantation (n=5 biological replicates, 4 in technical triplicate, marked with different symbols). (G) Human CD45+ engraftment at 16 weeks post transplant in injected femur (n=4, 5 mice/biological experiment). Lineage analysis of control or 4HPR transplanted mice from FIG. 5G for (H) B lymphoid, (I) myeloid, (J) erythroid, and (K) primitive CD34+ at the 16 LTRC dose. (L) CD45+ cells were isolated from 5 biological experiments of the 16 LTRC dose primary mice and transplanted at limiting doses into secondary recipients for 16 weeks. Human CD45+ marking of >0.1% was considered positive for secondary engraftment. Limiting dilutation analysis was performed using ELDA software and the long-term repopulating cell (LTRC) frequency for each biological replicate plotted and the average LTRC frequency calculated.
(A) Representative flow cytometry analysis of the primitive hierarchy within the CD34+ fraction of day 8 cultured lin− CB cells after the indicated treatments for CD90 and CD45RA, n=4. B) The distribution of cultured CD34+CD90+CD45RA− (cHSC), CD34+CD90−CD45RA− (cMPP), and […] for the indicated conditions at day 8 of ex vivo culture following CD34 enrichment. Statistical significance assayed through unpaired t-test relative to vehicle control (Ctrl). The relative number of colonies resulting from (C) HSC or (D) MPP grown in methylcellulose CFC assays in the presence of vehicle control (−) or the indicated combination of 2 uM 4HPR, or 35 nM UM171 or 0.5 uM SR1 at 10 days. Statistical significance is calculated via unpaired t-test relative to ctrl (black) or to the presence of absence of 4HPR treatment for UM171 or SR1.
(§2) (A) The number of cells following 8 days of ex vivo culture at the 16 LTRC dose grown as in FIG. 5A for the indicated drug treatments (n=2). […] (2 biological replicates) (E) CD45+ cells were isolated from 2 biological experiments of the 16 LTRC dose primary mice and transplanted at limiting doses into secondary recipients for 16 weeks. Human CD45+ marking of >0.01% was considered positive for secondary engraftment. Limiting dilutation analysis was performed using ELDA software and the long-term repopulating cell (LTRC) frequency for each biological replicate plotted and the average LTRC frequency calculated.
To determine if 4HPR preserves functional HSC in CB liquid culture, we devised an experimental protocol to test the effect of 4HPR treatment in short-term ex vivo expansion culture on repopulation in serial NSG xenotransplantation to functionally read out LT-HSC (FIG. 5A). Briefly, lin− CB (enriched for CD34+) is cultured ex vivo in an in vitro limiting dilution assay (LDA) fashion based on 3 initial cell doses with high (16 functional HSC or LTRC), medium (3.2 LTRC) and limiting (0.65 LTRC) in xenotransplantation. All expanded cells are unbiasly transplanted via intrafemoral injection into NSG mice after 8 days of culture where drug is added every 2 day and reconstitution is assayed 16 weeks following transplantation. […] Human CD45+ cells are isolated from primary mice transplanted with the 16 LTRC dose and serially transplanted in LDA fashion to enumerate functional HSC in the gold-standard for long-term repopulating cell (LTRC). Remarkably, 4HPR treated cells show a 3 fold increase in SRC over control treatment through 32 weeks of xenotransplantation with an average LTRC frequency of 1e6 CD45+ cells (FIG. 5L, n=5, p=0.02). […] Thus, 4HPR acts to preserve LT-HSC function in ex vivo expansion despite limiting total CD34+ cells during culture. […]

[1] = system: ex vivo expanded human CB cells in NSG mice; experiment: Primary xenotransplantation of ex vivo expanded CB cells, 16 weeks
Description: as §1
All bones for each mouse were pooled following chimerism analysis and frozen for subsequent CD34 hierarchy analysis. Flow cytometry analysis were performed on CD34+ enriched cells using Miltenyl human CD34 enrichment protocol on thawed samples for the human CB hierarchy at the 16 HSC dose from 4 biological experiments, marked with different symbols (n=4 mice per biological experiment). The number of (B) CD34+CD19− cells, (C) CD34+CD38-, (D) CD34+CD38+, (E) HSC, (F) MPP, (G) MLP, and (I) GMP were quantitated from each mouse at 16 weeks post-transplant. Representative HSC hierarchy analysis scheme of CD34 enriched cells isolated from mice 16 weeks post-transplantation engrafted with ex vivo cultured CB cells in the presence of (J) vehicle control (black) or (K) 4HPR (green).
as §2, with “Human CD45+ marking of >0.01% was considered positive for secondary engraftment.” left out
To determine if 4HPR preserves functional HSC in CB liquid culture, we devised an experimental protocol to test the effect of 4HPR treatment in short-term ex vivo expansion culture on repopulation in serial NSG xenotransplantation to functionally read out LT-HSC (FIG. 5A). […]

[2] = 8 days culture, 4HPR vs vehicle control

SMILES: CC1=C(/C=C/C(C)=C/C=C/C(C)=C/C(=O)Nc2ccc(O)cc2)C(C)(C)CCC1 [4HPR, N-(4hydroxyphenyl)retinamide]
- erythroid differentiation in culture (lin- CB cells; [2]): decreased erythroid differentiation
- immunophenotypic CD34+ cells in culture (lin- CB cells; [2]): fewer immunophenotypic CD34+ cells
- myeloid differentiation in culture (lin- CB cells; [2]): enhanced myeloid differentiation
- cHSC in the CD34 compartment (lin- CB cells; day 8, relative to control): trends to increasing cHSC
- cMPP in the CD34 compartment (lin- CB cells; day 8, relative to control): increasing cMPP
- percentage of cProg cells in the CD34 compartment (lin- CB cells; day 8, relative to control): significantly limits the percentage of (cProg) cells
- formation of cProg cells (lin- CB cells; lin- CB as well as HSC and MPP, dominant over UM171 or SR1 singularly and in combination): limits the formation of cProg cells
- lineage distribution for B lymphoid, myeloid and erythroid ([1]; 16 HSC dose, 16 weeks): comparable between ctrl and 4HPR transplanted cells
- primitive lineage negative CD34+ cells in transplanted mice ([1]; 16 LTRC dose, 16 weeks): equally prevalent
- human CD45 chimerism ([1]; 16 weeks post transplant, all cell doses): the same CD45 chimerism as vehicle control
- HSPC populations of the HSC hierarchy in individual mice ([1]; 16 weeks post-transplant, control vs 4HPR expanded cells): on average identical
